Experimental findings from patent publication US11819476B2, “Rapamycin analogs and uses thereof” (Janssen Pharmaceutica NV, priority 2019, dated 2023) are described below.

Experiment [1] relates to pS6K1 T389 in PC3 cells (mTORC1 pathway). In words: Western blot based pS6K1 assay (mTORC1 pathway). Particulars: 24 hours. The format is cell-based. As to the method:
Example 76: Western Blot Based pS6K1 and pAKT Assay at 24 and 48 Hour Timepoints
Assay Protocol: • 1. Seed six well plate with 500,000 PC3 cells per well and incubate for […]. • 2. Add compounds into the cell plate. Incubate for 24 to 48 hours. • 4. Plate is placed on ice and the media is removed via aspiration. The wells are washed with 1 mL of 1×PBS and then fully aspirated. • 5. 110 μL of 1% Triton Lysis Buffer is added and each well is scraped vigorously. • 6. Cell homogenates are transferred to 1.5 mL eppendorf tubes on ice and spun down at 4° C. for 10 minutes at 10,000 rpm. • 7. Protein concentration of resulting cell lysates were quantified utilizing a Bradford assay and the samples run analyzed via Western blot on 4-12% Bis/Tris gels with 1×MES buffer. • 8. The gels were transferred onto membranes at 50V for 100 minutes, blocked with Odyssey Blocking buffer for 30 minutes then incubated overnight with primary antibody (pS6K1 T389 Rabbit or pAkt S473 Rabbit) overnight at 4° C. on a rotator. • 9. The membranes were washed 3× with TBS-T with a 5 minute incubation between each wash then incubated with secondary antibody (LiCor IRDye 800 Donkey Anti Rabbit) for at least 30 minutes. • 10. The membranes were washed 3× with TBS-T with a 5 minute incubation between each wash. • 11. The gels were then incubated for 5 minutes with PBS at room temperature then imaged using a Li-Cor.
PC3 cells were treated with everolimus (0.1 μM, 0.01 μM, and 0.001 μM) or I-9 ([…], 0.1 μM, 0.01 μM, and 0.001 μM) for 24 hours.
The methods employed were substantially similar to those described above. Compounds were evaluated in PC3 cells. Additional cell lines that may be used include Jurkat cells, wild-type mouse embryotic fibroblast (MEF) cells, tuberous sclerosis 2 (TSC2) negative (TSC−/−) MEF cells, and tuberous sclerosis 2 (TSC2) positive (TSC+/+) MEF cells. Cells are incubated with compounds of the present invention for various time periods (e.g., 5 minutes, 15 minutes, 30 minutes, 90 minutes, 24 hours, or 48 hours), and evaluated according to known methodologies, such as those herein described.
(In general: Immunoblotting shows a protein as a band on a membrane.)

The subject of the next experiment is pS6K1 in MCF7. Kind of experiment: AlphaLISA Ultra pS6K1 Assay. The format is cell-based. Particulars: Homo sapiens, 1.5 h; MCF7 cells, 90 min incubation. As for the experimental part: Example 74: AlphaLISA Ultra pS6K1 Assay
Assay Protocol: • 1. Seed MCF-7 cells in Corning 3701 plate and incubate for 20˜24 hour. 12,000˜16,000 cells will be seeded in 36 μL medium per well. • 2. Change the culture medium with fresh medium and incubate for another 2 hours. • 3. Add 12 μL (4×) compounds into the cell plate by HAMILTON. Final DMSO concentration is 0.5%. Incubate for 90 minutes. • 4. Aspirate 38 μL by HAMILTON, 10 μL rest per well. • 5. Add 10 μL 2× lysis buffer using HAMILTON; total volume in wells is 20 μL. Allow cells to shake for 30 min. Cover plate by plastic foil and store plate at −80° C. up to analysis. • 6. Thaw cell lysate at RT and transfer 10 μL lysate to assay plate (Optiplate-384). • 7. Add 5 μL acceptor beads into assay plate and incubation for 2 hours • 8. Add 5 μL donor beads and incubation for 2 hours • 9. Count the plate by EnSpire Multimode Plate Reader

Take `CO[C@@H]1C[C@H](C[C@@H](C)[C@@H]2CC(=O)[C@H](C)/C=C(\C)[C@@H](O)[C@@H](OC)C(=O)[C@H](C)C[C@H](C)/C=C/C=C/C=C(\C)[C@@H](OCCC3CCNC3=O)C[C@@H]3CC[C@@H](C)[C@@](O)(O3)C(=O)C(=O)N3CCCC[C@H]3C(=O)O2)CC[C@H]1OCCO` (stereo partly drawn) [Example I-3, (23E,25E,27E,28E,34R,35S,36R,37R,39S,42S,44S,45S,46R,47R,57R)-46,57-dihydroxy-45-[(1R)-2-[(1S,3R,4R)-4-(2-hydroxyethoxy)-3-methoxy-cyclohexyl]-1-methyl-ethyl]-47-methoxy-34,35,36,37,48,49-hexamethyl-44-[2-(2-oxopyrrolidin-3-yl)ethoxy]-69,70-dioxa-59-azatricyclohexatriaconta-23,25,27(48),28(49)-tetraene-50,51,53,54,55-pentone]: in experiment [1], the “inhibition of the mTORC1 pathway (pS6K1, Western blot)” value (from here on “inhibition of the mTORC1 pathway”) is on record as “strong inhibition”.
Turning to `CO[C@@H]1C[C@H](C[C@@H](C)[C@@H]2CC(=O)[C@H](C)/C=C(\C)[C@@H](O)[C@@H](OC)C(=O)[C@H](C)C[C@H](C)/C=C/C=C/C=C(\C)[C@@H](OCCCC3CCNC3=O)C[C@@H]3CC[C@@H](C)[C@@](O)(O3)C(=O)C(=O)N3CCCC[C@H]3C(=O)O2)CC[C@H]1OCCO` (stereo partly drawn) [Example I-15, (23E,25E,27E,28E,35R,36S,37R,38R,40S,43S,45S,46S,47R,48R,58R)-47,58-dihydroxy-46-[(1R)-2-[(1S,3R,4R)-4-(2-hydroxyethoxy)-3-methoxy-cyclohexyl]-1-methyl-ethyl]-48-methoxy-35,36,37,38,49,50-hexamethyl-45-[3-(2-oxopyrrolidin-3-yl)propoxy]-70,71-dioxa-60-azatricyclohexatriaconta-23,25,27(49),28(50)-tetraene-51,52,54,55,56-pentone], the “inhibition of the mTORC1 pathway” value in experiment [1] is reported as “strong inhibition”.
What is called IC50 is the concentration that inhibits the measured activity by half. A higher IC50 goes with a need for much substance. Take `CO[C@@H]1C[C@H](C[C@@H](C)[C@@H]2CC(=O)[C@H](C)/C=C(\C)[C@@H](O)[C@@H](OC)C(=O)[C@H](C)C[C@H](C)/C=C/C=C/C=C(\C)C(OCCCC(=O)O)C[C@@H]3CC[C@@H](C)[C@@](O)(O3)C(=O)C(=O)N3CCCC[C@H]3C(=O)O2)CC[C@H]1OCCO` (stereo partly drawn) [Example I-30, 4-[[(21E,23E,25E,26E,33R,34S,35R,36R,38S,40S,43S,44R,45R,55R)-44,55-dihydroxy-43-[(1R)-2-[(1S,3R,4R)-4-(2-hydroxyethoxy)-3-methoxy-cyclohexyl]-1-methyl-ethyl]-45-methoxy-33,34,35,36,46,47-hexamethyl-48,49,50,51,52-pentaoxo-67,68-dioxa-56-azatricyclohexatriaconta-21,23,25(46),26(47)-tetraen-42-yl]oxy]butanoic acid]: in the experiment with pS6K1 in MCF7, the IC50 was not below 100 nM.
`COCCSC1C[C@@H]2CC[C@@H](C)[C@@](O)(O2)C(=O)C(=O)N2CCCC[C@H]2C(=O)O[C@H]([C@H](C)C[C@@H]2CC[C@@H](O)[C@H](OC)C2)CC(=O)[C@H](C)/C=C(\C)[C@@H](O)[C@@H](OC)C(=O)[C@H](C)C[C@H](C)/C=C/C=C/C=C/1C` (stereo partly drawn) [Example I-31, (22E,24E,26E,27E,33R,34S,35R,36R,38S,40S,43S,44S,45R,54R)-44,54-dihydroxy-43-[(1R)-2-[(1S,3R,4R)-4-hydroxy-3-methoxy-cyclohexyl]-1-methyl-ethyl]-45-methoxy-42-[2-(2-methoxyethoxy)ethylsulfanyl]-33,34,35,36,46,47-hexamethyl-64,65-dioxa-55-azatricyclohexatriaconta-22,24,26(46),27(47)-tetraene-48,49,50,51,52-pentone] came in with an IC50 in the experiment with pS6K1 in MCF7 of 1 to 10 nM.
Compound `CO[C@@H]1C[C@H](C[C@@H](C)[C@@H]2CC(=O)[C@H](C)/C=C(\C)[C@@H](O)[C@@H](OC)C(=O)[C@H](C)C[C@H](C)/C=C/C=C/C=C(\C)C(NC(=O)OCCOCCO)C[C@@H]3CC[C@@H](C)[C@@](O)(O3)C(=O)C(=O)N3CCCC[C@H]3C(=O)O2)CC[C@H]1O` (stereo partly drawn) [Example I-32, 2-(2-hydroxyethoxy)ethyl N-[(21E,23E,25E,26E,32R,33S,34R,35R,37S,39S,42S,43R,44R,54R)-43,54-dihydroxy-42-[(1R)-2-[(1S,3R,4R)-4-hydroxy-3-methoxy-cyclohexyl]-1-methyl-ethyl]-44-methoxy-32,33,34,35,45,46-hexamethyl-47,48,49,50,51-pentaoxo-67,68-dioxa-56-azatricyclohexatriaconta-21,23,25(45),26(46)-tetraen-41-yl]carbamate] displayed an IC50 in the experiment with pS6K1 in MCF7 of 1 to 10 nM.
The compound `CO[C@@H]1C[C@H](C[C@@H](C)[C@@H]2CC(=O)[C@H](C)/C=C(\C)[C@@H](O)[C@@H](OC)C(=O)[C@H](C)C[C@H](C)/C=C/C=C/C=C(\C)C(OCCCCCO)C[C@@H]3CC[C@@H](C)[C@@](O)(O3)C(=O)C(=O)N3CCCC[C@H]3C(=O)O2)CC[C@H]1O` (stereo partly drawn) [Example I-34, (21E,23E,25E,26E,33R,34S,35R,36R,38S,40S,43S,44R,45R,54R)-44,54-dihydroxy-43-[(1R)-2-[(1S,3R,4R)-4-hydroxy-3-methoxy-cyclohexyl]-1-methyl-ethyl]-42-(5-hydroxypentoxy)-45-methoxy-33,34,35,36,46,47-hexamethyl-65,66-dioxa-55-azatricyclohexatriaconta-21,23,25(46),26(47)-tetraene-48,49,50,51,52-pentone] gave an IC50 in the experiment with pS6K1 in MCF7 of 0.1 to 1 nM.
In the experiment on pS6K1 in MCF7, `COc1ccc([C@@H]2C[C@@H]3CC[C@@H](C)[C@@](O)(O3)C(=O)C(=O)N3CCCC[C@H]3C(=O)O[C@H]([C@H](C)C[C@@H]3CC[C@@H](O)[C@H](OC)C3)CC(=O)[C@H](C)/C=C(\C)[C@H](O)[C@@H](OC)C(=O)[C@H](C)C[C@H](C)/C=C/C=C/C=C/2C)c(OC)c1` [Example I-37, (26E,28E,30E,31E,36R,37S,38R,39R,41S,43S,44R,46S,47R,48R,57R)-44-(2,4-dimethoxyphenyl)-47,57-dihydroxy-46-[(1R)-2-[(1S,3R,4R)-4-hydroxy-3-methoxy-cyclohexyl]-1-methyl-ethyl]-48-methoxy-36,37,38,39,49,50-hexamethyl-67,68-dioxa-58-azatricyclohexatriaconta-26,28,30(49),31(50)-tetraene-51,52,53,54,55-pentone] gave an IC50 not below 100 nM.
The compound `COc1ccc([C@H]2C[C@@H]3CC[C@@H](C)[C@@](O)(O3)C(=O)C(=O)N3CCCC[C@H]3C(=O)O[C@H]([C@H](C)C[C@@H]3CC[C@@H](O)[C@H](OC)C3)CC(=O)[C@H](C)/C=C(\C)[C@H](O)[C@@H](OC)C(=O)[C@H](C)C[C@H](C)/C=C/C=C/C=C/2C)c(OC)c1` [Example I-38, (26E,28E,30E,31E,36R,37S,38R,39R,41S,43S,44S,46S,47R,48R,57R)-44-(2,4-dimethoxyphenyl)-47,57-dihydroxy-46-[(1R)-2-[(1S,3R,4R)-4-hydroxy-3-methoxy-cyclohexyl]-1-methyl-ethyl]-48-methoxy-36,37,38,39,49,50-hexamethyl-67,68-dioxa-58-azatricyclohexatriaconta-26,28,30(49),31(50)-tetraene-51,52,53,54,55-pentone] returned an IC50 in the experiment with pS6K1 in MCF7 of 10 to 100 nM.
Consider `CO[C@@H]1C[C@H](C[C@@H](C)[C@@H]2CC(=O)[C@H](C)/C=C(\C)[C@@H](O)[C@@H](OC)C(=O)[C@H](C)C[C@H](C)/C=C/C=C/C=C(\C)[C@@H](OCCCCC(N)=O)C[C@@H]3CC[C@@H](C)[C@@](O)(O3)C(=O)C(=O)N3CCCC[C@H]3C(=O)O2)CC[C@H]1OCCO` [Example I-48], for which the “inhibition of the mTORC1 pathway” value in experiment [1] was “strong inhibition”.
